Assay results published in US10765114B2, “4-amino-6-(pyridyl and 2-substitutedphenyl)-picolinates and 6-amino-2-(pyridyl and 2-substitutedphenyl)-pyrimidine-4-carboxylates and their use as herbicides” (Dow AgroSciences LLC, priority 2013, dated 2020).

Key:
Experiment in all cases: Post-Emergent Test III (Wheat and Barley)
BRSSS = type: in vivo; details: for Visual Growth Reduction (%) 21 Days After Application, BRSSS: BRSSS oil seed rape (Brassica napus), post-emergent
Method in brief: (§1)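 Injury was rated visually on a 0 to 100 percent scale 21 days after treatment, relative to untreated plants, and probit analysis of multiple dose rates gave growth-reduction values. Plants at the second or third true leaf stage had been track-sprayed at 187 L/ha.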

HORSS = type: in vivo; details: crop; for Visual Growth Reduction (%) 21 Days After Application, HORSS: HORSS barley (Hordeum vulgare), post-emergent
Method in brief: as §1

TRZSS = type: in vivo; details: crop; for Visual Growth Reduction (%) 21 Days After Application, TRZSS: TRZSS wheat (Triticum aestivum), post-emergent
Method in brief: as §1

POLCO (wild buckwheat) = type: in vivo, Polygonum convolvulus; details: for Visual Growth Reduction (%) 21 Days After Application, POLCO: POLCO wild buckwheat (Polygonum convolvulus), post-emergent
Procedure: (§2) Seeds of the desired test plant species were planted in Sun Gro MetroMix® 306 planting mixture, which typically has a pH of 6.0 to 6.8 and an organic matter content of about 30 percent, in plastic pots with a surface area of 103.2 square centimeters (cm^2). When required to ensure good germination and healthy plants, a fungicide treatment and/or other chemical or physical treatment was applied. The plants were grown for 7-36 days in a greenhouse with an approximate 14 h photoperiod which was maintained at about 18° C. during the day and 17° C. during the night. Nutrients and water were added on a regular basis and supplemental lighting was provided with overhead metal halide 1000-Watt lamps as necessary. The plants were employed for testing when they reached the second or third true leaf stage.
(§3) A weighed amount, determined by the highest rate to be tested, of each test compound was placed in a 25 mL glass vial and was dissolved in 4 mL of a 97:3 v/v mixture of acetone and DMSO to obtain concentrated stock solutions. […] The concentrated stock solutions obtained were diluted with 20 mL of an aqueous mixture containing acetone, water, isopropyl alcohol, DMSO, Agri-Dex crop oil concentrate, and X-77 surfactant in a 48:39:10:1.5:1.5:0.02 v/v ratio to obtain spray solutions containing the highest application rates. Additional application rates were obtained by serial dilution of 12 mL of the high rate solution into a solution containing 2 mL of 97:3 v/v mixture of acetone and DMSO and 10 mL of an aqueous mixture containing acetone, water, isopropyl alcohol, DMSO, Agri-Dex crop oil concentrate, and X-77 surfactant in a 48:39:10:1.5:1.5:0.02 v/v ratio to obtain ½×, ¼×, ⅛× and 1/16× rates of the high rate. Compound requirements are based upon a 12 mL application volume at a rate of 187 liters per hectare (L/ha). Formulated compounds were applied to the plant material with an overhead Mandel track sprayer equipped with 8002E nozzles calibrated to deliver 187 L/ha over an application area of 0.503 square meters at a spray height of 18 inches (43 cm) above the average plant canopy height. Control plants were sprayed in the same manner with the solvent blank.
(§4) The treated plants and control plants were placed in a greenhouse as described above and watered by subirrigation to prevent wash-off of the test compounds. After 21 dAYS, the condition of the test plants as compared with that of the untreated plants was determined visually and scored on a scale of 0 to 100 percent where 0 corresponds to no injury and 100 corresponds to complete kill and presented as indicated in Table A.
(§5) By applying the well-accepted probit analysis as described by J. Berkson in Journal of the American Statistical Society, 48, 565 (1953) and by D. Finney in “Probit Analysis” Cambridge University Press (1952), herbicidal injury of a specific compound at various rates can be used to calculate GR10, GR20, GR50, GR80 and GR90 values, which are defined as growth reduction factors that correspond to the effective dose of herbicide required to provide plant growth reduction (GR) of 10 percent, 20 percent, 50 percent, 80 percent and 90 percent, respectively. Probit analysis was applied to data collected from multiple dose rates of individual compounds utilizing the procedures explained in the following examples. The analysis of those dose rates is captured in the following tables.

[1] = test system: VERPE (Persian speedwell); type: in vivo, Veronica persica; details: for Visual Growth Reduction (%) 21 Days After Application, VERPE: VERPE bird's-eye speedwell (Veronica persica), post-emergent
Procedure: as §2, §3, §4, §5

PAPRH (common poppy) = type: in vivo, Papaver rhoeas; details: for Visual Growth Reduction (%) 21 Days After Application, PAPRH: PAPRH common poppy (Papaver rhoeas), post-emergent
Procedure: as §2, §3, §4, §5

KCHSC (kochia) = type: in vivo, Kochia scoparia
Method in brief: as §1

`Nc1cc(-c2ccc(Cl)c(Cl)c2Cl)nc(C(=O)O)c1Cl` [Compound 93] was tested, and the “Visual Growth Reduction (%) 21 Days After Application, BRSSS” value (BRSSS; 17.5 g ai/ha) was “A (95-100)”, the “Visual Growth Reduction (%) 21 Days After Application, BRSSS” value (BRSSS; 35 g ai/ha) was “A (95-100)” and the “Visual Growth Reduction (%) 21 Days After Application, BRSSS” value (BRSSS; 70 g ai/ha) was “A (95-100)”. For the same molecule, the “GR50, BRSSS” value (BRSSS; BRSSS, growth reduction of 50%, probit analysis, 21 days) was 0 g ai/ha, the “GR80, BRSSS” value (BRSSS; BRSSS, growth reduction of 80%, probit analysis, 21 days) was 3 g ai/ha and the “GR90, BRSSS” value (BRSSS; BRSSS, growth reduction of 90%, probit analysis, 21 days) was 11 g ai/ha. The “Visual Growth Reduction (%) 21 Days After Application, HORSS” value (HORSS; 17.5 g ai/ha) was “C (75-84)”, the “Visual Growth Reduction (%) 21 Days After Application, HORSS” value (HORSS; 35 g ai/ha) was “B (85-94)” and the “Visual Growth Reduction (%) 21 Days After Application, HORSS” value (HORSS; 70 g ai/ha) was “B (85-94)”. For the same molecule, the “GR10, HORSS” value (HORSS; HORSS barley, growth reduction of 10%, probit analysis, 21 days) was 1 g ai/ha, the “GR20, HORSS” value (HORSS; HORSS barley, growth reduction of 20%, probit analysis, 21 days) was 1 g ai/ha and the “Visual Growth Reduction (%) 21 Days After Application, TRZSS” value (TRZSS; 17.5 g ai/ha) was “C (75-84)”. The “Visual Growth Reduction (%) 21 Days After Application, TRZSS” value (TRZSS; 35 g ai/ha) was “B (85-94)”, the “Visual Growth Reduction (%) 21 Days After Application, TRZSS” value (TRZSS; 70 g ai/ha) was “B (85-94)” and the “GR10, TRZSS” value (TRZSS; TRZSS wheat, growth reduction of 10%, probit analysis, 21 days) was 1 g ai/ha. For the same molecule, the “GR20, TRZSS” value (TRZSS; TRZSS wheat, growth reduction of 20%, probit analysis, 21 days) was 1 g ai/ha, the “Visual Growth Reduction (%) 21 Days After Application, POLCO” value (POLCO (wild buckwheat); 17.5 g ai/ha) was “B (85-94)” and the “Visual Growth Reduction (%) 21 Days After Application, POLCO” value (POLCO (wild buckwheat); 35 g ai/ha) was “B (85-94)”. For the same molecule, the “Visual Growth Reduction (%) 21 Days After Application, POLCO” value (POLCO (wild buckwheat); 70 g ai/ha) was “A (95-100)”, the “GR50, POLCO” value (POLCO (wild buckwheat); POLCO, growth reduction of 50%, probit analysis, 21 days) was 2 g ai/ha and the “GR80, POLCO” value (POLCO (wild buckwheat); POLCO, growth reduction of 80%, probit analysis, 21 days) was 7 g ai/ha. For the same molecule, the “GR90, POLCO” value (POLCO (wild buckwheat); POLCO, growth reduction of 90%, probit analysis, 21 days) was 13 g ai/ha, the “Visual Growth Reduction (%) 21 Days After Application, VERPE” value ([1]; 17.5 g ai/ha) was “E (45-59)” and the “Visual Growth Reduction (%) 21 Days After Application, VERPE” value ([1]; 35 g ai/ha) was “D (60-74)”. The “Visual Growth Reduction (%) 21 Days After Application, VERPE” value ([1]; 70 g ai/ha) was “D (60-74)”, the “GR50, VERPE” value ([1]; VERPE, growth reduction of 50%, probit analysis, 21 days) was 24 g ai/ha and the “GR80, VERPE” value ([1]; VERPE, growth reduction of 80%, probit analysis, 21 days) was over 140 g ai/ha. The “GR90, VERPE” value ([1]; VERPE, growth reduction of 90%, probit analysis, 21 days) was over 140 g ai/ha, the “Visual Growth Reduction (%) 21 Days After Application, PAPRH” value (PAPRH (common poppy); 17.5 g ai/ha) was “C (75-84)” and the “Visual Growth Reduction (%) 21 Days After Application, PAPRH” value (PAPRH (common poppy); 35 g ai/ha) was “C (75-84)”. For the same molecule, the “Visual Growth Reduction (%) 21 Days After Application, PAPRH” value (PAPRH (common poppy); 70 g ai/ha) was “B (85-94)”, the “GR50, PAPRH” value (PAPRH (common poppy); PAPRH, growth reduction of 50%, probit analysis, 21 days) was 1 g ai/ha and the “GR80, PAPRH” value (PAPRH (common poppy); PAPRH, growth reduction of 80%, probit analysis, 21 days) was 27 g ai/ha. For the same molecule, the “GR90, PAPRH” value (PAPRH (common poppy); PAPRH, growth reduction of 90%, probit analysis, 21 days) was over 140 g ai/ha, the pest or weed control at 17.5 g/ha (KCHSC (kochia); Bassia scoparia, post-emergence, 504 h, KCHSC kochia (Kochia scoparia), 17.5 g ai/ha, post-emergent, read-out: Visual Growth Reduction (%) 21 Days After Application, KCHSC) was 85 to 94% and the pest or weed control at 35 g/ha (KCHSC (kochia); Bassia scoparia, post-emergence, 504 h, KCHSC kochia (Kochia scoparia), 35 g ai/ha, post-emergent, read-out: Visual Growth Reduction (%) 21 Days After Application, KCHSC) was 85 to 94%. For the same molecule, the pest or weed control at 70 g/ha (KCHSC (kochia); Bassia scoparia, post-emergence, 504 h, KCHSC kochia (Kochia scoparia), 70 g ai/ha, post-emergent, read-out: Visual Growth Reduction (%) 21 Days After Application, KCHSC) was 95 to 100%, the “GR50, KCHSC” value (KCHSC (kochia); KCHSC, growth reduction of 50%, probit analysis, 21 days) was 2 g ai/ha and the “GR80, KCHSC” value (KCHSC (kochia); KCHSC, growth reduction of 80%, probit analysis, 21 days) was 10 g ai/ha. For the same molecule, the “GR90, KCHSC” value (KCHSC (kochia); KCHSC, growth reduction of 90%, probit analysis, 21 days) was 27 g ai/ha.
